Results on three compounds are retold here after patent publication US20010041682A1, “Dinucleotides useful for the treatment of lung disease” (priority 1995, published 2001).

The subject of assay [1] is airway epithelia. Put plainly: Cl− secretion by cultured normal airway cells on permeable supports (Example 1). The class given is cell-based. The procedure:
(§1) Normal airway cells were cultured on permeable supports and Cl^− secretion assayed as previously described in M. J. Stutts, et al., Am. J. Physiol. 267, C1442-C1451 (1994). Cl^− secretion was measured after administration of the dinucleotide A2P4 (Sigma Chemicals, St. Louis, Mo.). Amiloride was added to block airway epithelial sodium absorption.
Moreover, the administration of A2P4 had no effect on Cl^− secretion in airway epithelia pre-stimulated with UTP, which is known to activate non-CFTR Cl^− channels. […] Stimulation of this receptor is thus a therapeutic strategy for certain lung diseases, including cystic fibrosis.

In assay [2] the test system is Cultured airway epithelia. In words: Cl− secretion by cultured airway epithelia, UTP compared with U2P4 (Example 2). The class given is cell-based. Particulars: for Mean Cl− secretion Induced: 10^−4 M on mucosal surface, tissues pretreated with amiloride (10^−4 M); for Effectiveness (efficacy) on Cl− secretion, UTP compared with U2P4: 10^−4 M, the highest concentration tested, amiloride (10^−4 M) pretreated. Here is the method: as §1
Studies were carried out according to the method described in Example 1 to compare the effectiveness (efficacy) of UTP and U2P4. Cultured airway epithelia were exposed to a concentration of from 10^−9 M to […] of either UTP or U2P4 in 6 ml of solution circulating over the mucosal surface. The tissues were pretreated with amiloride (10^−4 M) to block Na^+ absorption. Under these conditions, the current generated by the tissues is due to Cl^− secretion. UTP and U2P4 induced a similar pattern of Cl^− secretion. At 10^−4 M, the highest concentration tested, UTP and U2P4 were equieffective (equiefficacious).

In the case of `Nc1ncnc2c1ncn2[C@@H]1O[C@H](COP(=O)(O)OP(=O)(O)OP(=O)(O)OP(=O)(O)OC[C@H]2O[C@@H](n3cnc4c(N)ncnc43)[C@H](O)[C@@H]2O)[C@@H](O)[C@H]1O` [A2P4], the “Effect on Cl− secretion” value is given as “no effect” in assay [1] (airway epithelia pre-stimulated with UTP); “little effect” in assay [1] (exposed to the basolateral surface of the airway epithelial preparation, amiloride added); “stimulated additional Cl^− secretion” in assay [1] (luminal surface, airway epithelia treated with forskolin, amiloride added).
As for `O=c1ccn([C@@H]2O[C@H](COP(=O)(O)OP(=O)(O)OP(=O)(O)OP(=O)(O)OC[C@H]3O[C@@H](n4ccc(=O)[nH]c4=O)[C@H](O)[C@@H]3O)[C@@H](O)[C@H]2O)c(=O)[nH]1` [U2P4, UppppU], in assay [2], the “Mean Cl− secretion Induced” value worked out at 43.8 μA/cm^2 and the “Effectiveness (efficacy) on Cl− secretion, UTP compared with U2P4” value is on record as “equieffective”.
On to `O=c1ccn([C@@H]2O[C@H](COP(=O)(O)OP(=O)(O)OP(=O)(O)O)[C@@H](O)[C@H]2O)c(=O)[nH]1` [UTP, reference compound], for which, in assay [2], the “Mean Cl− secretion Induced” value stood at 45.3 μA/cm^2 and the “Effectiveness (efficacy) on Cl− secretion, UTP compared with U2P4” value was “equieffective”.
